Measured values published in patent publication EP0966972B1, “Topical composition containing silicon gum” (Dow Corning France S.A., priority 1998, dated 1999).

Assay: Substantivity of silicone gum formulation on skin (FT-IR/ATR)
Format: in vivo, human
Conditions: 10 seconds after spraying
Experimental: The forearms of volunteers were cleaned and then sprayed in several areas with the formulation of Example 4. […] A FT-IR/ATR cell was used to take an IR spectrum at each area sprayed. […] An IR of the cleansed forearm skin was used as a control blank. The percentage of silicone remaining on the skin was calculated by comparing the height of the specific silicon peak height (1255 cm^-1)/ specific skin peak height (1538 cm^-1) in the blank test.

C[Si](C)(C)O[Si](C)(C)C [HMDS, hexamethyldisiloxane]
detectability on the skin: not detectable
